Experimental data as given in patent publication US7792665B2, “Method for designing a compound based on the three dimensional structure of phosphoinositide dependent protein kinase 1 (PDK1)” (Medical Research Council, priority 2002, dated 2010).
Residue numbers refer to the chain shown, from its start. Entries after “also recorded” stand apart in the source; their conditions may differ. Where a SMILES comes first, the peptide text is derived from it. [ ]: non-standard residue; d: D form. pT = C[C@@H](OP(=O)(O)O)[C@H](N)C(=O)O

Key:
[1] = molecular target: T1, PDK1[K76A] (Homo sapiens, UniProt O15530, K76A); experiment: Surface plasmon resonance (BiaCore) binding, PDK1[K76A]; conditions: relative to wild type PDK1
T1 construct: made in house; host or cells: human embryonic kidney 293 cells (pEBG2T vector)
T1 sequence (O15530 1-556 K76A): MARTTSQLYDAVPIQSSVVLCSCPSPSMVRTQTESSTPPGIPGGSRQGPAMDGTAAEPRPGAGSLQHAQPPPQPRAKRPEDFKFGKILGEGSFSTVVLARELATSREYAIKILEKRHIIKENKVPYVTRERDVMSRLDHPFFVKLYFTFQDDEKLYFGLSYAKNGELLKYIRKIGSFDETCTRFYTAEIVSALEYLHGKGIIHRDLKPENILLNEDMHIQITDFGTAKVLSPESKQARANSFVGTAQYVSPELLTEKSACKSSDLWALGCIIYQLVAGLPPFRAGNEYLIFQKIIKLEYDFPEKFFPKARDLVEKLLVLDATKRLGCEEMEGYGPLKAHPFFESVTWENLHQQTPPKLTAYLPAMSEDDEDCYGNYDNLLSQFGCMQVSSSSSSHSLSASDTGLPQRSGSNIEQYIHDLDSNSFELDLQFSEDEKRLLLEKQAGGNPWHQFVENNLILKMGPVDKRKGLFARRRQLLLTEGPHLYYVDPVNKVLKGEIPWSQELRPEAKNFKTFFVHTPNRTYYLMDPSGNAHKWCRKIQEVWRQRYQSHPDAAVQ
Protocol: (§1) Binding and activation of wild type and mutant forms of PDK1 to a phosphopeptide derived from the hydrophobic motif of S6K1. The binding of the wild type (wt) PDK1 and indicated mutants to a phosphopeptide comprising the hydrophobic motif of S6K1 (S6K-pHM: […]*YVAPSV, where T* indicates phospho-threonine, SEQ ID NO:104) was analysed by surface plasmon resonance as described in the Materials and Methods.
(§2) A. The sensor chip SA was coated with 12RUs of the biotinylated S6K-pHM peptide and the binding was analysed following injection of 270 nM wild type PDK1, PDK1 [T148A] and PDK1 [K76A]. […] (data not shown).
B. As in A. except that binding was analysed over a range of PDK1 concentrations (2-2150 nM). The response level at the steady state binding is plotted versus the log of the PDK1 concentration. The estimated Kd was obtained by fitting the data to a sigmoid curve using Kaleidagraph software.
Binding was analysed in a BiaCore 3000 system (BiaCore AB, Stevenage, UK). Biotinylated S6K-pHM (Biotin-C12-[…](P)YVAPSV) (SEQ ID NO:104) or the non-phosphorylated form of this peptide S6K-HM was bound to an streptavidin-coated Sensor chip (SA) (12 response units, RU). […] Steady state binding was determined at each concentration. Dissociation of PDK1 from the phospho-peptide was monitored over a 1 min period. […]

[2] = molecular target: T2, PDK1[R131A] (Homo sapiens, UniProt O15530, R131A); experiment: Surface plasmon resonance (BiaCore) binding, PDK1[R131A]
T2 construct: GST (N); made in house; host or cells: human embryonic kidney 293 cells (pEBG2T vector)
T2 sequence (O15530 1-556 R131A): T1 sequence (O15530 1-556 K76A) with A76K, R131A
Protocol: as §1, §2
Binding was analysed in a BiaCore 3000 system (BiaCore AB, Stevenage, UK). Biotinylated S6K-pHM (Biotin-C12-[…](P)YVAPSV) (SEQ ID NO:104) or the non-phosphorylated form of this peptide S6K-HM was bound to an streptavidin-coated Sensor chip (SA) (12 response units, RU). 30 μl of wild type or the indicated mutant GST-PDK1 were injected at a flow rate of 30 μl/min, in buffer HBS-P (10 mM HEPES pH 7.4, 0.15M NaCl, 0.005% (by vol) polysorbate-20) supplemented with 1 mM DTT. Specific interactions between 56K-pHM and PDK1 proteins were obtained between the concentration range of 2-2150 nM PDK1. Steady state binding was determined at each concentration. Dissociation of PDK1 from the phospho-peptide was monitored over a 1 min period. […]

[3] = molecular target: T1, PDK1[K76A]; experiment: PDK1 catalytic activity towards T308tide, activation by peptides, PDK1[K76A]; assay type: biochemical; conditions: T308tide substrate
Protocol: (§3) C. Activation of the indicated forms of PDK1 by 56K-pHM and S6K-HM. PDK1 activity was measured using the peptide substrate (T308tide) in the presence of the indicated concentrations of 56K-pHM (closed circles) and S6K-HM (open circles) as described in the methods. Assays were performed in triplicate and similar results obtained in 2 separate experiments. The results are the average—SD for a single experiment.
(§4) The ability of wild type and mutant PDK1 to phosphorylate the synthetic peptide T308tide ([…] ([Biondi et al., 2000]) (SEQ ID NO:108) was carried out in 30 μl assays containing 100 ng of wild type or mutant PDK1, 50 mM Tris/HCl pH 7.5, 0.1% 13-mercaptoethanol, 10 mM MgCl2, 100 μM [32γ P]ATP (200 cpm/pmol), 0.5 μM microcystin-LR, 1 mM T308tide in the presence or absence of the indicated concentrations of the 56K-pHM peptide ([…](P)YVAPSV) (SEQ ID NO:104) or 56K-HM. peptide ([…]) (SEQ ID NO:105). After incubation for 10 min at 30° C., 25 μl of the resultant mixture was spotted into P81 phosphocellulose paper (2×2 cm) and the papers washed and analysed as described previously for assays of MAP kinase. Control assays were carried out in parallel in which either PDK1, or peptide substrate were omitted; these values were always less than 5% of the activity measured in the presence of these reagents. […]

[4] = molecular target: T3, mutant of PDK1 in which both Lys76 and Arg131 were changed to Ala (Homo sapiens, UniProt O15530, K76A/R131A); experiment: PDK1 catalytic activity towards T308tide, activation by peptides, Lys76 and Arg131 to Ala double mutant; assay type: biochemical; conditions: peptide 0.3 and 1 mM, compared with PDK1[R131A]
T3 construct: GST (N); made in house; host or cells: human embryonic kidney 293 cells (pEBG2T vector)
Protocol: as §3, §4

T3 sequence (O15530 whole entry K76A/R131A): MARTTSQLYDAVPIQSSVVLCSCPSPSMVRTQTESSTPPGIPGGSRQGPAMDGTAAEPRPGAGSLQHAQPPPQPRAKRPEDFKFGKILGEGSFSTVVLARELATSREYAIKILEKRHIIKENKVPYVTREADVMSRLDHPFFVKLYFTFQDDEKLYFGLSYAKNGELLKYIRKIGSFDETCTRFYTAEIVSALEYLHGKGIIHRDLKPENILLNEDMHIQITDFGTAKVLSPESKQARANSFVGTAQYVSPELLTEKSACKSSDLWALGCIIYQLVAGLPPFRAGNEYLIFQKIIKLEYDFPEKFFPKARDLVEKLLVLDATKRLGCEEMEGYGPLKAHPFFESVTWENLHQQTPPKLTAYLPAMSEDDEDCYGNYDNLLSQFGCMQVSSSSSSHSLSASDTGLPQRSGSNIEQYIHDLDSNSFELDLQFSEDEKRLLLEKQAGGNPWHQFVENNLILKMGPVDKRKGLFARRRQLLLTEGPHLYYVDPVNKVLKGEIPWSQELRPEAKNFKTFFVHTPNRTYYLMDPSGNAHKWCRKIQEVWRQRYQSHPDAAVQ

CC(C)C[C@H](NC(=O)[C@H](Cc1ccccc1)NC(=O)[C@@H](NC(=O)[C@H](CCC(N)=O)NC(=O)[C@H](CC(N)=O)NC(=O)[C@H](C)NC(=O)[C@H](CO)NC(=O)[C@H](CCC(=O)O)NC(=O)[C@@H](N)CO)C(C)C)C(=O)NCC(=O)N[C@@H](Cc1ccccc1)C(=O)N[C@H](C(=O)N[C@@H](Cc1ccc(O)cc1)C(=O)N[C@H](C(=O)N[C@@H](C)C(=O)N1CCC[C@H]1C(=O)N[C@@H](CO)C(=O)N[C@H](C(=O)O)C(C)C)C(C)C)[C@@H](C)OP(=O)(O)O [S6K-pHM] (H-SESANQVFLGF[pT]YVAPSV-OH; N-terminus and C-terminus assumed)
lower affinity of PDK1[K76A] than wild type PDK1 [1]: 3 fold | binding of PDK1[R131A] to peptide [2]: No detectable binding; also recorded: did not detectably interact | higher concentration required to half maximally activate PDK1[K76A] than wild type [3]: approximately 3 fold | activation of Lys76/Arg131 to Ala double mutant [4]: activated even less significantly
